Reference: patent EP0411159B1, “METHOD FOR DETERMINING ENZYMATIC ACTIVITY” (IATRON LABORATORIES, INC., priority 1989, dated 1990)
In brackets after ≈: the same amount, converted by molar mass.

Legend:
[1] = prior-art substrate; needs solubilizing auxiliary agent such as cyclodextrin or crown ether; cited from earlier work
[2] = stability (decomposition) of the substrate in aqueous solution; assay type: physicochemical
[3] = water solubility of the substrate (aqueous solution prepared)

CC(=O)N[C@H]1[C@H](Oc2ccc([N+](=O)[O-])cc2Cl)O[C@H](CO)[C@@H](O)[C@@H]1O [2-chloro-4-nitrophenyl-N-acetyl-β-D-glucosaminide]
solubility in water (in words) [1]: difficult to dissolve in water

CC(=O)N[C@H]1[C@H](Oc2ccc([N+](=O)[O-])c([N+](=O)[O-])c2)O[C@H](CO)[C@@H](O)[C@@H]1O [3,4-DNG, 3,4-dinitrophenyl-N-acetyl-β-D-glucosaminide]
degraded at 1 h ([2]; enzyme reaction conditions (pH 5, 37°C) for one hour, read-out: decomposition ratio): 1.5% | stability of aqueous solution ([2]; under ice-cooling): stable | degraded ([2]; water, aqueous solution left to stand at room temperature overnight): ~1% | solubility [3]: 12 mM (≈ 4650 µg/mL)
